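Each compound was tested at five concentrations against cells in 96-well plates for 48 hours. The concentration for 50% growth inhibition is given as GI50. The concentration for full growth arrest is given as TGI.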
Legend:
Assay in all cases: NCI-60 cell line screen, 48 h
[1] = test system: HS 578T breast
[2] = test system: 786-0 renal
[3] = test system: SK-OV-3 ovarian
[4] = test system: SW-620 colon
[5] = test system: SK-MEL-28 melanoma
[6] = test system: SF-295 CNS
[7] = test system: RXF 393 renal
[8] = test system: MDA-MB-468 breast
[9] = test system: SF-539 CNS
[10] = test system: HCC-2998 colon
[11] = test system: MOLT-4 leukemia
[12] = test system: COLO 205 colon
[13] = test system: PC-3 prostate
[14] = test system: SK-MEL-2 melanoma
[15] = test system: A549 NSCLC
[16] = test system: MDA-MB-231 breast
[17] = test system: IGROV1 ovarian
[18] = test system: NCI-H226 lung
[19] = test system: HL-60(TB) leukemia
[20] = test system: K-562 leukemia
[21] = test system: UACC-257 melanoma
[22] = test system: KM12 colon
[23] = test system: SNB-19 CNS
[24] = test system: SR leukemia
[25] = test system: BT-549 breast
[26] = test system: CCRF-CEM leukemia
[27] = test system: SF-268 CNS
[28] = test system: OVCAR-3 ovarian
[29] = test system: U251 CNS
[30] = test system: SN12C renal
[31] = test system: HCT-15 colon
[32] = test system: CAKI-1 renal
[33] = test system: DU-145 prostate
[34] = test system: LOX IMVI melanoma
[35] = test system: UO-31 renal
[36] = test system: SK-MEL-5 melanoma
[37] = test system: OVCAR-4 ovarian
[38] = test system: NCI-H522 lung
[39] = test system: NCI-H460 lung
[40] = test system: NCI-H23 lung
[41] = test system: TK-10 renal
[42] = test system: T-47D breast
[43] = test system: RPMI-8226 leukemia
[44] = test system: M14 melanoma
[45] = test system: ACHN renal
[46] = test system: HOP-62 NSCLC
[47] = test system: NCI/ADR-RES ovarian
[48] = test system: OVCAR-5 ovarian
[49] = test system: MALME-3M melanoma
[50] = test system: MCF7 breast
[51] = test system: A498 renal
[52] = test system: UACC-62 melanoma
[53] = test system: OVCAR-8 ovarian
[54] = test system: HCT-116 colon
[55] = test system: EKVX NSCLC
[56] = test system: MDA-MB-435
[57] = test system: HT29 colon
[58] = test system: HOP-92 NSCLC

Compound Cc1ccc2nc3c(nc2c1)c1cc(I)ccc1n3CCN(C)C has a GI50 [1] of 12.5 µM, a TGI [1] of 34.3 µM and a GI50 [2] of 5.54 µM. The TGI [2] was 19.1 µM, the GI50 [3] was 13.3 µM and the TGI [3] was 30.5 µM. For the same compound, the GI50 [4] was 3.61 µM, the TGI [4] was 15.9 µM and the GI50 [5] was 13.8 µM. For the same compound, the TGI [5] was 26.7 µM, the GI50 [6] was 4.09 µM and the TGI [6] was 16.2 µM. The GI50 [7] was 4.24 µM, the TGI [7] was 15.7 µM and the GI50 [8] was 4.12 µM. For the same compound, the TGI [8] was 17.3 µM, the GI50 [9] was 4.87 µM and the TGI [9] was 17.2 µM. It also gave a GI50 [10] of 3.81 µM, a TGI [10] of 15.3 µM and a GI50 [11] of 7.02 µM. The TGI [11] was 24.8 µM, the GI50 [12] was 3.56 µM and the TGI [12] was 16.7 µM. It also gave a GI50 [13] of 3.84 µM, a TGI [13] of 17.5 µM and a GI50 [14] of 13.2 µM. It also gave a TGI [14] of 26.4 µM, a GI50 [15] of 3.66 µM and a TGI [15] of 14.2 µM. The GI50 [16] was 4.25 µM, the TGI [16] was 18 µM and the GI50 [17] was 4.87 µM. It also gave a TGI [17] of 18.5 µM, a GI50 [18] of 5.98 µM and a TGI [18] of 23.4 µM. The GI50 [19] was 3.16 µM, the TGI [19] was 20.5 µM and the GI50 [20] was 4.06 µM. It also gave a TGI [20] of 18.8 µM, a GI50 [21] of 13.4 µM and a TGI [21] of 27 µM. For the same compound, the GI50 [22] was 4.13 µM, the TGI [22] was 16.8 µM and the GI50 [23] was 9.48 µM. It also gave a TGI [23] of 21.4 µM, a GI50 [24] of 3.18 µM and a TGI [24] of 14.8 µM. For the same compound, the GI50 [25] was 14.8 µM, the TGI [25] was 28.8 µM and the GI50 [26] was 12.6 µM. The TGI [26] was 28.7 µM, the GI50 [27] was 5.36 µM and the TGI [27] was 19.2 µM. For the same compound, the GI50 [28] was 5.63 µM, the TGI [28] was 18.7 µM and the GI50 [29] was 4.66 µM. It also gave a TGI [29] of 16 µM, a GI50 [30] of 3.92 µM and a TGI [30] of 15.5 µM. For the same compound, the GI50 [31] was 3.14 µM, the TGI [31] was 12.9 µM and the GI50 [32] was 3.78 µM. It also gave a TGI [32] of 17.9 µM, a GI50 [33] of 5.04 µM and a TGI [33] of 16.8 µM. For the same compound, the GI50 [34] was 3.72 µM, the TGI [34] was 14.4 µM and the GI50 [35] was 1.92 µM. It also gave a TGI [35] of 15.8 µM, a GI50 [36] of 12.1 µM and a TGI [36] of 25.2 µM. It also gave a GI50 [37] of 6.19 µM, a TGI [37] of 20.7 µM and a GI50 [38] of 4.64 µM. For the same compound, the TGI [38] was 18.5 µM, the GI50 [39] was 3.51 µM and the TGI [39] was 14 µM. It also gave a GI50 [40] of 6.07 µM, a TGI [40] of 19.6 µM and a GI50 [41] of 13.8 µM. The TGI [41] was 27.8 µM, the GI50 [42] was 7.9 µM and the TGI [42] was 24.9 µM. For the same compound, the GI50 [43] was 7.59 µM, the TGI [43] was 25.4 µM and the GI50 [44] was 11.1 µM. For the same compound, the TGI [44] was 25.4 µM, the GI50 [45] was 3.05 µM and the TGI [45] was 13.2 µM. It also gave a GI50 [46] of 4.81 µM, a TGI [46] of 20.5 µM and a GI50 [47] of 4.67 µM. For the same compound, the TGI [47] was 18.4 µM, the GI50 [48] was 5.36 µM and the TGI [48] was 18.5 µM. The GI50 [49] was 10.3 µM, the TGI [49] was 23.1 µM and the GI50 [50] was 3.35 µM. The TGI [50] was 13.9 µM, the GI50 [51] was 14.2 µM and the TGI [51] was 29.3 µM. It also gave a GI50 [52] of 11.7 µM, a TGI [52] of 24 µM and a GI50 [53] of 3.72 µM. It also gave a TGI [53] of 15.2 µM, a GI50 [54] of 3.6 µM and a TGI [54] of 14.4 µM. For the same compound, the GI50 [55] was 7.08 µM, the TGI [55] was 20.9 µM and the GI50 [56] was 7.41 µM. It also gave a TGI [56] of 20 µM, a GI50 [57] of 3.42 µM and a TGI [57] of 13.4 µM.

O=C(Cc1c(-c2ccccc2[N+](=O)[O-])n(-c2ncnc3c2c(-c2ccccc2)c(-c2ccccc2)n3Cc2ccccc2)[nH]c1=O)c1ccc(Cl)c(Cl)c1 showed a GI50 [1] of 10.4 µM, a TGI [1] of 74.6 µM and a GI50 [2] of 26.8 µM. It also gave a TGI [2] of over 100 µM, a GI50 [3] of 14.2 µM and a TGI [3] of 55.4 µM. For the same compound, the GI50 [4] was 22.5 µM, the TGI [4] was over 100 µM and the GI50 [5] was 17.9 µM. The TGI [5] was over 100 µM, the GI50 [6] was 8.34 µM and the TGI [6] was over 100 µM. It also gave a GI50 [7] of 22.5 µM, a TGI [7] of over 100 µM and a GI50 [8] of 5.29 µM. It also gave a TGI [8] of 33.5 µM, a GI50 [9] of 21 µM and a TGI [9] of 83.9 µM. It also gave a GI50 [10] of 18.8 µM, a TGI [10] of over 100 µM and a GI50 [11] of 13.4 µM. The TGI [11] was 61.6 µM, the GI50 [12] was 11.5 µM and the TGI [12] was 24.7 µM. It also gave a GI50 [13] of 5.45 µM, a TGI [13] of over 100 µM and a GI50 [15] of 19.7 µM. It also gave a TGI [15] of over 100 µM, a GI50 [17] of 12.1 µM and a TGI [17] of over 100 µM. It also gave a GI50 [18] of 14.4 µM, a TGI [18] of 61 µM and a GI50 [19] of 5.24 µM. It also gave a TGI [19] of 58.7 µM, a GI50 [20] of 6.68 µM and a TGI [20] of over 100 µM. It also gave a GI50 [21] of 9.08 µM, a TGI [21] of 66.1 µM and a GI50 [22] of 15.1 µM. For the same compound, the TGI [22] was over 100 µM, the GI50 [23] was 15.9 µM and the TGI [23] was over 100 µM. It also gave a GI50 [24] of 12.4 µM, a TGI [24] of 45.3 µM and a GI50 [25] of 12.1 µM. For the same compound, the TGI [25] was 53.8 µM, the GI50 [26] was 18.6 µM and the TGI [26] was over 100 µM. It also gave a GI50 [27] of 29.4 µM, a TGI [27] of over 100 µM and a GI50 [28] of 12.8 µM. For the same compound, the TGI [28] was over 100 µM, the GI50 [29] was 13.7 µM and the TGI [29] was over 100 µM. For the same compound, the GI50 [30] was 15.1 µM, the TGI [30] was over 100 µM and the GI50 [31] was 15.8 µM. The TGI [31] was 57.5 µM, the GI50 [32] was 15.7 µM and the TGI [32] was 93.9 µM. The GI50 [33] was 33.9 µM, the TGI [33] was over 100 µM and the GI50 [34] was 11.6 µM. For the same compound, the TGI [34] was 26.9 µM, the GI50 [58] was 2.2 µM and the TGI [58] was 23.7 µM. For the same compound, the GI50 [36] was 8.89 µM, the TGI [36] was 21.6 µM and the GI50 [37] was 13.2 µM. The TGI [37] was over 100 µM, the GI50 [38] was 7.37 µM and the TGI [38] was 72.8 µM. For the same compound, the GI50 [39] was 15.3 µM, the TGI [39] was over 100 µM and the GI50 [40] was 13.3 µM. For the same compound, the TGI [40] was 72.5 µM, the GI50 [41] was 29.3 µM and the TGI [41] was over 100 µM. For the same compound, the GI50 [42] was 2.76 µM, the TGI [42] was over 100 µM and the GI50 [43] was 3.38 µM. For the same compound, the TGI [43] was 29.7 µM, the GI50 [44] was 17.7 µM and the TGI [44] was 58.1 µM. The GI50 [45] was 15.2 µM, the TGI [45] was over 100 µM and the GI50 [46] was 19.4 µM. It also gave a TGI [46] of 85.5 µM, a GI50 [47] of 19.7 µM and a TGI [47] of over 100 µM. It also gave a GI50 [48] of 16.4 µM, a TGI [48] of 83.8 µM and a GI50 [49] of 12.4 µM. The TGI [49] was 48.9 µM, the GI50 [50] was 12.7 µM and the TGI [50] was 47.7 µM. It also gave a GI50 [51] of 16.6 µM, a TGI [51] of 78 µM and a GI50 [52] of 5.17 µM. The TGI [52] was 20.9 µM, the GI50 [53] was 20.1 µM and the TGI [53] was over 100 µM. It also gave a GI50 [54] of 5.9 µM, a TGI [54] of 80.9 µM and a GI50 [55] of 3.84 µM. The TGI [55] was over 100 µM, the GI50 [56] was 19.5 µM and the TGI [56] was 62.2 µM. It also gave a GI50 [57] of 10.1 µM and a TGI [57] of over 100 µM.

Source: PubChem BioAssay (NCI)
